Where a SMILES comes first, the peptide text is derived from it. [ ]: non-standard residue; d: D form. Nle = CCCC[C@H](N)C(=O)O
What was measured:
[1] = system: Tiam1; test: In vitro Tiam1 cleavage assay; format: biochemical, human; details: immunoblot
Description: HEK293T cells were transiently transfected with full-length Tiam1 cDNA as previously described (Buchsbaum et al., 2002). Forty-eight hours after transfection, cells were washed once with PBS and lysed in SP buffer as described above. Lysates were cleared of unbroken cells and debris by centrifugation at 10,000×g for 10 minutes. Aliquots of cleared lysates were reserved for immunoblots; the remainder were incubated with protein A-Sepharose beads (Pharmacia) and anti-Tiam1 antibody (diluted according to the manufacturer's instructions) or equal amounts of polyclonal rabbit IgG (Santa Cruz) for 2 h at 4° C. with constant agitation. Immunoprecipitates were washed twice with ice-cold SP buffer and once with Reaction Buffer (20 mM Tris-HCl, pH 7.5, 10 mM DTT, 6 mM CaCl2) in the presence of protease inhibitors (1 mM PMSF and 1.7 μg/ml aprotinin) prior to the cleavage reaction.
Pre-senescent cells were maintained in culture as described above. Senescence was induced with 800 uM H2O2 as described above, and confirmed by SA-β gal staining. Pre-senescent and senescent RMFs were washed with cold PBS, pelleted, and resuspended in extraction buffer (10 mM HEPES pH 7.0, 2 mM MgCl2, 50 mM NaCl, 1 mM DTT) containing inhibitors (17 μg/ml aprotinin, 10 μg/ml leupepsin, 100 μM NaV, 3.3 mM PMSF). Cells were lysed by freeze-thaw cycles in ethanol-liquid nitrogen/37° C. water bath. Extracts were centrifuged at 10,000 g for 15 min at 4° C., and resulting supernatants were used as the cytosolic fraction. Protein concentration was determined by BCA protein assay (Bio-Rad).
Immunoprecipitated proteins were incubated with extracted lysates from pre-senescent or senescent cells in Reaction Buffer for 2 hours at 37° C. with constant agitation. […] Samples were resolved by SDS-PAGE and immunoblotting as described.

[2] = system: T-cell lymphoma invasion and metastasis-inducing protein 1 (Tiam1)
[3] = system: HMECs; test: Spheroid co-culture in Matrigel with senescent RMFs; format: cell-based, human; details: RMFs exposed to the agent before co-culture; preliminary examples
Description: (§1) As described previously [Xu K, et al., 2010, Oncogene 29:6533-42], Matrigel (BD Biosciences) was diluted in 1:1 ratio with ice-cold HMEC medium, and 50 μl of the mixture was placed mid-well in a 24-well plate. After incubating for 5 min in 37° C., an additional 250 μl of Matrigel:medium mixture was added into the well and incubated for another 30 min. A 1:1 mixture of HMEC and RMF cells (0.5×10^5 cells each) in 0.5 ml of HMEC medium was gently dropped onto the top of the solidified gel. Cells were cultured for two weeks and medium was changed every two or three days. Spheroid formation and projection growth were monitored daily under light microscopy. Images were obtained on a Diaphot Software Version 4.1 (Diagnostic Instruments Inc).
as §1, with “and 50 ul of the” for “and 50 μl of the”, “another 30 min A 1:1” for “another 30 min. A 1:1”, “light microscopy. […]” for “light microscopy. Images were obtained on a Diaphot Software Version 4.1 (Diagnostic Instruments Inc).”

[4] = system: RMF cells; test: Senescence induction and SA-β-Gal staining; format: cell-based, human; details: repeated 3-5 days later, seven days after induction
Description: After treatment, cells were rinsed twice with phosphate-buffered saline (PBS) and left to recover in culture medium. […] For each treatment, senescence induction was repeated 3-5 days later to prevent recovery and cell cycle re-entry. Cells were sub-cultured for at least 7 days and senescence induction was confirmed by SA-β-gal staining.
SA-β-Gal staining was conducted as described previously [Dimri, G P, et al., 1995, Proc Natl Acad Sci USA 92:9363-7]. Briefly, cells were washed twice in PBS and fixed 5 minutes in 2% formaldehyde/0.2% glutaraldehyde, washed again, and incubated at 37° C. overnight with fresh senescence-associated β-Gal (SA-β-Gal) stain solution: 1 mg 5-bromo-4-chloro-3-indolyl-β-D-galactoside (X-Gal) per ml (stock=20 mg in dimethylformamide per ml)/40 mM citric acid/sodium phosphate, pH 6.0/5 mM potassium ferrocyanide/5 mM potassium ferricyanide/150 mM NaCl/2 mM MgCl2. Cells with positive staining were observed and counted under a light microscope (Nikon, Eclipse TS100).

Sequence of T-cell lymphoma invasion and metastasis-inducing protein 1 (Tiam1) (chain, as listed by the source): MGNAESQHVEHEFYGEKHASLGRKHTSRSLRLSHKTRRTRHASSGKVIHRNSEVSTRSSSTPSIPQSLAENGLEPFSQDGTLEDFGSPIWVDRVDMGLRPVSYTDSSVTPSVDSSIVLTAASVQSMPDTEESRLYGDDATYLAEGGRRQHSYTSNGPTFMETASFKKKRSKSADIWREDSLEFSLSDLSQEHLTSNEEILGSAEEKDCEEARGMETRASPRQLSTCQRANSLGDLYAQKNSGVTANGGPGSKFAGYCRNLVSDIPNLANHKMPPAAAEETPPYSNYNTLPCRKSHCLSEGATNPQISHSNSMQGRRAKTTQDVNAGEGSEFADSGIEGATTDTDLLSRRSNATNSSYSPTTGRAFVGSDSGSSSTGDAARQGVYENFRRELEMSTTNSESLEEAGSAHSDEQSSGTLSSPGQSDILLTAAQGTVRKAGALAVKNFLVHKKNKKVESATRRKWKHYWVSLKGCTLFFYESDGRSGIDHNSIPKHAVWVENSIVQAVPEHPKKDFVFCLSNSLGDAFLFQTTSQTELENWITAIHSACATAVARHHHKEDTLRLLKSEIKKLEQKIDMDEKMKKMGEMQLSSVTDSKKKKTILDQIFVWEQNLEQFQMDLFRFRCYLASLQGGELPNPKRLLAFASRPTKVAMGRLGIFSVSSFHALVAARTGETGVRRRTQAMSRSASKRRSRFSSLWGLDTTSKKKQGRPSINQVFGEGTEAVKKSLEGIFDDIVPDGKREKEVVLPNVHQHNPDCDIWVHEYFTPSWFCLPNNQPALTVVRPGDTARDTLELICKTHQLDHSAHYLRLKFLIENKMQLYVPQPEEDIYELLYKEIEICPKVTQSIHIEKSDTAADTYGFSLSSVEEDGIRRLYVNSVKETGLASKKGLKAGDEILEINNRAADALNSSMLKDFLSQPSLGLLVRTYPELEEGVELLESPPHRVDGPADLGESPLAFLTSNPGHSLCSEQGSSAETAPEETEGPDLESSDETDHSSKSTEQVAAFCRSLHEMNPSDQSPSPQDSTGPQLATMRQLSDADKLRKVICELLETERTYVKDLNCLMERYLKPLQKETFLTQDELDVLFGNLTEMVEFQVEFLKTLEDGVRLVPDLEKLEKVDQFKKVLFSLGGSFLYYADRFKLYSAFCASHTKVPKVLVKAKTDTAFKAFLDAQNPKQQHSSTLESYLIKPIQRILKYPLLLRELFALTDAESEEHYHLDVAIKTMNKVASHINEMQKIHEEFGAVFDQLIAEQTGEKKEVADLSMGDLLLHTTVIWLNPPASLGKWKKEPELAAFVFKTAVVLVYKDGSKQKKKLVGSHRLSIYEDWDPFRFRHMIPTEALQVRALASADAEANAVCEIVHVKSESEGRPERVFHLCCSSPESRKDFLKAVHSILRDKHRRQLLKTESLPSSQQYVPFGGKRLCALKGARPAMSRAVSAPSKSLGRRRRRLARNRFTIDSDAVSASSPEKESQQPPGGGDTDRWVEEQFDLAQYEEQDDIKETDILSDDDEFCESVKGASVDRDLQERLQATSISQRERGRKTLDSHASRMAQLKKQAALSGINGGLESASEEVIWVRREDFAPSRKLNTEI

CCCC[C@@H](C=O)NC(=O)[C@H](CC(C)C)NC(=O)[C@H](CC(C)C)NC(C)=O [ALLN] (Ac-Leu-Leu-[Nle]-aldehyde)
degradation of immobilized Tiam1 induced by senescent lysates ([1]; lysates pre-incubated on ice 30 minutes with 50 μM ALLN): significantly inhibited degradation of the immobilized Tiam1

calpain proteases
degradation of immunoprecipitated Tiam1 (in vitro Tiam1 cleavage assay, immunoblot) [2]: Pre-incubation of cell lysates with either the calpain inhibitor ALLN or the calcium-chelator EDTA significantly inhibited degradation of the immobilized Tiam1 induced by senescent lysates

OO [H2O2, hydrogen peroxide]
HMEC invasiveness into matrix on co-culture with RMFs rendered senescent by the agent [3]: increased invasiveness into the surrounding matrix | induction of senescence (morphology, SA β-gal staining) ([4]; 800 μmol/L H2O2 for 2 hours): had taken on a morphologic appearance characteristic of senescence

CC(C)C[C@H](NC(=O)[C@H](Cc1ccccc1)NC(=O)c1cnccn1)B(O)O [bortezomib]
degradation of immobilized Tiam1 by senescent lysates ([1]; lysates pre-incubated with 5 nM bortezomib at 37° C. for 24 hours): did not prevent degradation of immobilized Tiam1

bleomycin
HMEC invasiveness into matrix on co-culture with RMFs rendered senescent by the agent [3]: increased invasiveness into the surrounding matrix | induction of senescence (morphology, SA β-gal staining) ([4]; 50 μg/ml bleomycin for 24 hours): had taken on a morphologic appearance characteristic of senescence

O=C(O)CN(CCN(CC(=O)O)CC(=O)O)CC(=O)O [EDTA]
degradation of immobilized Tiam1 induced by senescent lysates ([1]; lysates pre-incubated on ice 30 minutes with 1 mM EDTA): significantly inhibited degradation of the immobilized Tiam1

Reference: US20130137102A1, “Methods and kits for modulating tumor invasiveness and metastatic potential” (TUFTS MEDICAL CENTER, INC., priority 2010, published 2013)
